{"source": "patent US20060141010A1", "about": "“Coated preparations that contain at least one hydroformate” (Basf Aktiengesellschaft, priority 2003, published 2006)", "tested_on": "one-day-old chickens", "assay": "Feeding experiment using coated trisodium hydrogenformate preparations in a standard wheat-soy diet", "assay_type": "in vivo", "conditions": "after 21 days, vs negative control (standard wheat-soy diet)", "protocol": "A feeding experiment was carried out using one-day-old chickens. Trisodium hydrogenformate was coated with 0, 15 and 30% by weight hydrogenated soybean oil. Per dose, 2 repetitions were carried out, and 10 chickens were used in each feeding experiment.\nA standard wheat-soy diet was used as negative control. The coated trisodium hydrogenformate preparations were added to the diet in exchange for cellulose (1% in the negative control).\nFeeding results compared with the negative control [%] after 21 days.", "key": {"[1]": {"conditions": "0.4 % by weight trisodium hydrogenformate in diet"}, "[2]": {"conditions": "0.8 % by weight trisodium hydrogenformate in diet"}}, "data": [{"smiles": "O=CO.O=C[O-].O=C[O-].O=C[O-].[Na+].[Na+].[Na+]", "note": "[trisodium hydrogenformate]", "values": [{"measurement": "FCR (feed conversion rate), feeding results compared with the negative control", "setting": "[1]", "value": "+2%"}, {"measurement": "Weight gain, feeding results compared with the negative control", "setting": "[1]", "value": "+2%"}, {"measurement": "FCR (feed conversion rate), feeding results compared with the negative control", "setting": "[2]", "value": "+5%"}, {"measurement": "Weight gain, feeding results compared with the negative control", "setting": "[2]", "value": "+2%"}]}]}
